Assay results: the Biogen ADME set (Fang et al. 2023)
≈ marks a conversion by molar mass, not a printed value.

Details: for aqueous solubility: pH 6.8

| MDR1-MDCK efflux ratio | intrinsic clearance, human liver microsomes | intrinsic clearance, rat liver microsomes | aqueous solubility | fraction unbound, human plasma | fraction unbound, rat plasma | Compound |
| --- | --- | --- | --- | --- | --- | --- |
| 0.243 | 96.3 mL/min/kg | 1050 mL/min/kg | 67 µg/mL (≈ 197 µM) | – | – | COc1ccccc1C(=O)NCc1nc(C)cc(N2CCCCC2)n1 |
| 15.6 | 10.7 mL/min/kg | 257 mL/min/kg | – | – | – | O=c1c2c(C(F)(F)F)cccc2ncn1CCc1ncc[nH]1 |
| 0.951 | 150 mL/min/kg | 724 mL/min/kg | 25.7 µg/mL (≈ 65.5 µM) | – | – | Cc1cccc(NC(=O)CN2CCCN(c3ccc(C(F)(F)F)cn3)CC2)c1 |
| – | 203 mL/min/kg | 1540 mL/min/kg | – | – | – | Cc1cccc(C)c1NCc1noc(C2CC2)n1 |
| – | 756 mL/min/kg | 2350 mL/min/kg | – | – | – | COc1ccnc(N2CCCN(Cc3ccccc3C)CC2)n1 |
| 0.721 | 15.5 mL/min/kg | 189 mL/min/kg | 2.44 µg/mL (≈ 10 µM) | – | – | O=C(Nc1nc2ccccc2[nH]1)C1CCCCC1 |
| – | – | – | 27.5 µg/mL (≈ 88.8 µM) | – | – | CC1(C)C(=O)N(Cc2ccc(CO)cc2)C(=O)c2ccccc21 |
| – | 44.3 mL/min/kg | 244 mL/min/kg | – | – | – | c1cnc2c(Oc3ncnc4sccc34)cccc2c1 |
| 82.7 | ≤ 4.74 mL/min/kg | 45.1 mL/min/kg | 23.6 µg/mL (≈ 79.8 µM) | – | – | O=C(NCCc1nnc2n1CCC2)c1ccc2c(c1)CCC2 |
| 0.547 | 122 mL/min/kg | 2520 mL/min/kg | 6.12 µg/mL (≈ 21.4 µM) | – | – | Cc1ccc2c(CC(=O)NCc3cccs3)coc2c1 |
| 23.2 | ≤ 4.74 mL/min/kg | ≤ 10.7 mL/min/kg | 45.3 µg/mL (≈ 160 µM) | – | – | Cc1ccc(C(=O)Nc2cccc(C(=O)N(C)C)c2)cn1 |
| 7.09 | 132 mL/min/kg | 1440 mL/min/kg | 33 µg/mL (≈ 96.1 µM) | 0.0844 | 0.13 | Cc1nnc(CN(C)CC(C)Oc2ccc(Cl)c(Cl)c2)n1C (configuration not stated) |
| 83.8 | 92.1 mL/min/kg | 445 mL/min/kg | – | – | – | Cc1nn(C(C)C)c(C)c1S(=O)(=O)NCC1CCN(C(=O)C2CC2)CC1 |
| 0.352 | 36.5 mL/min/kg | 207 mL/min/kg | 22.6 µg/mL (≈ 91.1 µM) | – | – | Cc1cccc2sc(NC(=O)C(C)(C)C)nc12 |
| – | 34.7 mL/min/kg | 485 mL/min/kg | – | – | – | COc1cc(-c2cnc(NC3CC3)nc2-c2cccs2)nc(OC)n1 |
| 0.313 | 95.2 mL/min/kg | 4490 mL/min/kg | 2.57 µg/mL (≈ 8.2 µM) | – | – | Fc1ccc(CNc2nnc(-c3ccc4c(c3)OCO4)o2)cc1 |
| 4.21 | ≤ 4.74 mL/min/kg | ≤ 10.7 mL/min/kg | 27.7 µg/mL (≈ 124 µM) | – | – | Cc1nc(NCc2scnc2C)n(C)n1 |
| 3.34 | 19.2 mL/min/kg | 51.7 mL/min/kg | 8.44 µg/mL (≈ 22.4 µM) | – | – | COc1ccc(CN2CCc3nc(-c4cccnc4)nc(O)c3C2)c(C)c1C |
| 0.337 | 38.9 mL/min/kg | 573 mL/min/kg | 40.1 µg/mL (≈ 150 µM) | – | – | C(=C\c1ccccc1)/CNCc1ccc2c(c1)OCO2 |
| – | 6.3 mL/min/kg | 14.2 mL/min/kg | – | – | – | COCC(=O)N(CC1CCCO1)c1nc2c(s1)CCc1c-2cnn1C (configuration not stated) |
| 0.678 | ≤ 4.74 mL/min/kg | 52.2 mL/min/kg | 14.7 µg/mL (≈ 72.4 µM) | – | – | COc1ccc(-c2c(C)n[nH]c2C)cn1 |
| 2.35 | 13.3 mL/min/kg | 80.5 mL/min/kg | – | – | – | Fc1ccc(CCNc2ncnc3ncccc23)cc1 |

Continued, compound first:

| Compound | MDR1-MDCK efflux ratio | intrinsic clearance, human liver microsomes | intrinsic clearance, rat liver microsomes | aqueous solubility | fraction unbound, human plasma | fraction unbound, rat plasma |
| --- | --- | --- | --- | --- | --- | --- |
| Cc1nccc(C2CCN(Cc3ncc[nH]3)CC2)n1 | 25.7 | ≤ 4.74 mL/min/kg | 28.9 mL/min/kg | 80.4 µg/mL (≈ 313 µM) | – | – |
| CCc1cc(NCc2cccc(OCCOC)c2)ncn1 | 0.827 | 9.28 mL/min/kg | 148 mL/min/kg | 49.1 µg/mL (≈ 171 µM) | – | – |
| CC(C)(C)OC(=O)N1CCCN1C(=O)c1cc2cc(Cl)ccc2[nH]1 | – | 47.2 mL/min/kg | 687 mL/min/kg | – | – | – |
| CS(=O)(=O)CCN1CCC(n2c(=O)[nH]c3ccccc32)CC1 | – | ≤ 4.74 mL/min/kg | ≤ 10.7 mL/min/kg | 62.9 µg/mL (≈ 194 µM) | – | – |
| CCOC1CCN(C(=O)Cn2c(=O)[nH]c3ccccc32)CC1 | 16.9 | ≤ 4.74 mL/min/kg | 20.2 mL/min/kg | 47.3 µg/mL (≈ 156 µM) | – | – |
| O=C(Cc1csc(-c2ccccn2)n1)NC1CCCCCC1 | 0.945 | 87 mL/min/kg | 2280 mL/min/kg | 11.4 µg/mL (≈ 36.2 µM) | – | – |
| NC(=O)c1cnc(NC2CC2)nc1CCNC(=O)C1(c2cccc(F)c2)CCOCC1 | 32.6 | 37.7 mL/min/kg | 88.6 mL/min/kg | 77.3 µg/mL (≈ 181 µM) | – | – |
| c1ccc(-c2ncc(CNc3ncccn3)s2)nc1 | 0.641 | 40.5 mL/min/kg | 2070 mL/min/kg | – | – | – |
| Cc1cccc2c(=O)n(CCC(=O)Nc3cc(C4CC4)n[nH]3)cnc12 | – | – | – | 8.26 µg/mL (≈ 24.5 µM) | – | – |
| CC(C)(C)c1ccc(C(=O)Nc2cn3cc(-n4ccnc4)ccc3n2)cc1 | 2.85 | 60.4 mL/min/kg | 25.6 mL/min/kg | 2.75 µg/mL (≈ 7.65 µM) | – | – |
| CCONC(=O)Cc1coc2c(C)c(C)ccc12 | – | 89.7 mL/min/kg | 1060 mL/min/kg | 34.2 µg/mL (≈ 138 µM) | – | – |
| Clc1ccc(-c2ccc(CNCC3CCCO3)o2)c(Cl)c1 (configuration not stated) | 0.624 | 55.4 mL/min/kg | 1050 mL/min/kg | 30.4 µg/mL (≈ 93.3 µM) | – | – |
| O=C(CSCCc1ccccn1)Nc1ccccc1 | 0.518 | 42.1 mL/min/kg | 2670 mL/min/kg | – | – | – |
| Cc1cccnc1Nc1cccc(C2CCCN(CC(=O)Nc3nccs3)C2)n1 (configuration not stated) | 1.49 | 89.9 mL/min/kg | 582 mL/min/kg | – | 0.0152 | 0.0434 |
| CC(=O)N1CCN(Cc2nc(O)cc(C(F)(F)F)n2)C(C)(C)C1 | 26.6 | ≤ 4.74 mL/min/kg | ≤ 10.7 mL/min/kg | – | – | – |
| N#Cc1nncn1CC(=O)Nc1ccc2ccccc2c1 | – | – | – | 22.8 µg/mL (≈ 82.1 µM) | – | – |
| N#Cc1cccc(CN2CCN(CCO)CC2)c1 | – | 6.28 mL/min/kg | 126 mL/min/kg | 29.3 µg/mL (≈ 119 µM) | – | – |
| CN(Cc1nnc(C2CC2)n1C)C(=O)C1C2CC3CC(C2)CC1C3 (configuration not stated) | 11.1 | 47.8 mL/min/kg | 951 mL/min/kg | 46.4 µg/mL (≈ 141 µM) | – | – |

| Compound | MDR1-MDCK efflux ratio | intrinsic clearance, human liver microsomes | intrinsic clearance, rat liver microsomes | aqueous solubility | fraction unbound, human plasma | fraction unbound, rat plasma |
| --- | --- | --- | --- | --- | --- | --- |
| CC(C)(C)CC(=O)N1CCC(OCCCN)CC1 | 8.05 | ≤ 4.74 mL/min/kg | ≤ 10.7 mL/min/kg | 50.6 µg/mL (≈ 198 µM) | – | – |
| Cc1cccc2cnc(C3CCN(C(=O)CCc4ccno4)CC3)cc12 | – | 31.2 mL/min/kg | 729 mL/min/kg | – | – | – |
| CN(c1ncc(F)cn1)[C@H]1CCCNC1 | 0.438 | ≤ 4.74 mL/min/kg | ≤ 10.7 mL/min/kg | – | 1 | 1 |
| O=c1c2cccnc2ncn1Cc1ccc2c(c1)CCCC2 | 0.68 | 25.8 mL/min/kg | 711 mL/min/kg | – | – | – |
| O=C(Nc1ccccn1)c1cccc2ccccc12 | – | 131 mL/min/kg | 140 mL/min/kg | 35.3 µg/mL (≈ 142 µM) | – | – |
| CC(C)c1ccc2c(c1)[C@H](NC(=O)Cn1ccnn1)CCC2 | 3.4 | 88.8 mL/min/kg | 297 mL/min/kg | 12.6 µg/mL (≈ 42.1 µM) | – | – |
| CC(C)CCn1ccc(NC2CCN(C(C)C)CC2)n1 | 3.58 | ≤ 4.74 mL/min/kg | 152 mL/min/kg | – | – | – |
| CC1(C)CC(Oc2ccc(-c3ccc(-c4cn[nH]c4)cc3O)nn2)CC(C)(C)N1 | – | – | – | 12.9 µg/mL (≈ 32.8 µM) | – | – |
| Cc1cc(C)n(-c2ccc(CNC(=O)C3CCC3)cn2)n1 | 1.08 | 9.73 mL/min/kg | 571 mL/min/kg | 39.7 µg/mL (≈ 140 µM) | – | – |
| CN(Cc1cccc(C#N)c1)C(=O)CC(C)(C)C | – | – | – | 29.9 µg/mL (≈ 123 µM) | – | – |
| Cc1ncsc1CNc1nnc(-c2ccncc2)o1 | 3.75 | 8.9 mL/min/kg | 61.5 mL/min/kg | – | – | – |
| CCC(=O)N1CCCC(C(=O)N2CCc3c(Cl)cc(Cl)cc3C2C)C1 (configuration not stated) | – | 416 mL/min/kg | 1510 mL/min/kg | 54.8 µg/mL (≈ 143 µM) | – | – |
| CSc1nccc(N2Cc3cnn(Cc4ccc(F)cc4)c3C2)n1 | 0.579 | 141 mL/min/kg | 2590 mL/min/kg | – | – | – |
| Cc1nc2ccccn2c1CC(=O)NCCCSc1ccccc1 | 26.2 | 77.8 mL/min/kg | 1260 mL/min/kg | 42.3 µg/mL (≈ 125 µM) | – | – |
| COc1cccc(-n2nc(C(=O)O)cc2-c2ccc(C3CCCCC3)c(Cl)c2)c1 | 1.56 | 7.78 mL/min/kg | 32.5 mL/min/kg | 33.8 µg/mL (≈ 82.1 µM) | – | – |
| Cc1noc(-c2ccc(-c3ccc(CC(=O)O)cc3)cc2)c1NC(=O)O[C@H](C)c1ccccc1Cl | 7.69 | ≤ 4.74 mL/min/kg | 19.5 mL/min/kg | 10.4 µg/mL (≈ 21.2 µM) | – | – |
| CCOc1ncccc1-c1cc(Cl)ccc1O | 0.595 | 59.9 mL/min/kg | 654 mL/min/kg | 22.7 µg/mL (≈ 90.9 µM) | – | – |
| Fc1ccc2[nH]c(CO[C@H]3CN(Cc4ccccc4)C[C@H]3F)nc2c1 | 0.885 | 88.9 mL/min/kg | 971 mL/min/kg | 35.4 µg/mL (≈ 103 µM) | – | – |
